Source: patent publication US9623063B2, “Extracts from Ajuga reptans cell lines, their preparation and use” (I.R.B. ISTITUTO DI RICERCHE BIOTECNOLOGICHE S.r.l., priority 2005, dated 2017)
Like-named read-outs stand apart in the source and are kept apart here.

Columns and labels:
[1] = Metal chelation, spectrophotometric (Fe2+); format: physicochemical
Excerpt: The chelating activities of Ajuga reptans extracts in relation to Fe^2+, Fe^3+, Cu^2+ and Ni^2+ metal ions has been determined by means of spectrophotometric measurements using a Shimadzu 1770 UV spectrophotometer. The activities of chelating agents depends on the association constant (equilibrium) of their reactions with the metals according to the following reaction:
[formula] wherein Keq is the equilibrium constant equal to the ratio of concentrations at equilibrium of a complex and a product of equilibrium concentrations of metal ions and a chelator:
The method used for determining chelating activities is well documented in the literature (Korkina L G, Afarras'er I B. Antioxidant and chelating properties of flavonoids. Adv. Pharmacol., 1997, 38:151-63). The results are expressed as Keq (M^−1) calculated for a pure phenylpropanoid. This way the chelating activity against ferrous (Fe II), ferric (Fe III), copper (Cu II) and nickel ions has been calculated.

[2] = Peroxynitrite scavenging (SIN-1, PTIO spin trap, ESR); format: biochemical; conditions: means of 6 independent assays
Excerpt: (§1) The superoxide anion has been measured by a chemiluminescent assay based on the hypoxanthine (HPX)/xanthine oxidase (XOD) reaction using the Lumimax Superoxide Anion Detection Kit (Stratagene, La Jolla, Calif., USA) and following the manufacturer's instructions. Hydroxyl radical scavenger activity has been measured by means of the Fenton reaction for the production of hydroxyl radicals and chemiluminescent dosage (using a Victor^3 chemiluminometer, Wallac, Finland) with luminol. Peroxynitrite ions have been determined by means of dosage with a spontaneous generator of peroxynitrites (3-morpholinosidnonimine hydrochloride; SIN-1) and a stable reagent for the nitroxyl ions (2-(4-carboxyphenyl)-4,4,5,5-tetramethylimidazoline-1-oxyl-3-oxide potassium salt PTIO spin trap) then dosed by means of electron spin resonance (ESR) using a Nippon Denshi JES-FR30. Lipid peroxidation has been generated using Fe^2+ induced-oxygen reactive species, and detected using thiobarbituric acid in accordance with Buege, J A & Aust, S D: Microsomal lipid peroxidation (Methods Enzymol.
The results are expressed as the concentration inhibiting 50% of activity (IC50), means of 6 independent assays.

[3] = target: T1, 5 alpha reductase, type I (Homo sapiens, UniProt P18405); test: Type I 5 alpha reductase inhibition ([14C] testosterone conversion); format: biochemical
T1 construct: made in house; host or cells: genetically modified yeast
T1 sequence (P18405 1-259): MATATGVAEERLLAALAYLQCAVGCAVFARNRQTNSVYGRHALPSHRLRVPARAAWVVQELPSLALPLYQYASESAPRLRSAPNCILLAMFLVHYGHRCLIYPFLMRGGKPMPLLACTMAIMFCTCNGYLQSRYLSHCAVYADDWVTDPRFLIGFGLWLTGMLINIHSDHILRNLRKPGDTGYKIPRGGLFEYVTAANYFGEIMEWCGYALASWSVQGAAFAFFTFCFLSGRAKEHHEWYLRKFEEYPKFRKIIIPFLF
Procedure: Determination of the 5 alpha reductase inhibitory activities by Ajuga reptans extracts in comparison to Serenoa repens extracts. Said determination has been performed using enzymes (5 alpha reductase, type I and type II) produced by genetically modified yeast. Enzyme activities have been determined in the presence of Ajuga reptans extracts, teupolioside, isoteupolioside and Serenoa repens extracts.
Type I 5 alpha reductase activity has been assayed by incubating the enzyme in 0.1 M Tris-citrate buffer (pH 7.0), containing 5 μM [^14C] radio-labelled testosterone (Amersham, Sweden) and 5 mM NADPH (Sigma) in a final volume of 5 ml. The solution thus obtained has been incubated for 1 hour at 37° C.
In both assays, the steroids have been extracted using 5 ml of methylene chloride. The extracts have then been dried under a stream of nitrogen and the dried residues obtained have been dissolved in 20 μl of a chloroform-methanol mixture (2:1 v/v). […] For quantification of the results, the spots have been scraped from the TLC plate and extracted with 2 ml of ethyl acetate. The extracts obtained have been analysed, using scintillation fluid, with the aid of a Wallach β-counter. The enzyme activity has been calculated from the percentage conversion (C %) of the substrate into final product: C%=[counted product/(counted substrate+product)]×100.

[4] = Fe2+-induced lipid peroxidation (thiobarbituric acid); format: biochemical
Excerpt: as §1, with “Ajuga reptans Extracts 1 and 2, prepared as described in examples 1 and 2, and isoteupolioside have been used to assess in vitro antioxidant action with specific oxygen radical generating systems such as the superoxide anion (O2^−), the hydroxyl radical (HO^−), the peroxynitrite radical (ONOO^−) and the inhibition of lipid peroxidation. The” for “The”, “Lipid peroxidation has been generated using Fe^2+ induced-oxygen reactive species, and detected using thiobarbituric acid in accordance with Buege, J A & Aust, S D: Microsomal lipid peroxidation (Methods Enzymol.” left out

| SMILES | Fe^2+ (Keq, M^−1) ([1]; calculated for a pure phenylpropanoid) | Peroxynitrite radical (IC50) [2] | IC50 ([3]; first column of Table 9, pH 7.0, 5 μM testosterone, read-out: Type I 5 alpha reductase inhibition (IC50) (converted)) | Lipid peroxidation (IC50) ([4]; means of 6 independent assays) | Fe^2+ (Keq, M^−1) [1] | IC50 [3] | Lipid peroxidation (IC50) [4] |
| --- | --- | --- | --- | --- | --- | --- | --- |
| C[C@@H]1O[C@@H](O[C@@H]2[C@@H](O)[C@H](OCCc3ccc(O)c(O)c3)O[C@H](CO)[C@H]2OC(=O)/C=C/c2ccc(O)c(O)c2)[C@H](O[C@@H]2O[C@H](CO)[C@H](O)[C@H](O)[C@H]2O)[C@H](O)[C@H]1O [Teupolioside, teupolioside] | 350000 ± 20000 M⁻¹ | 1.8 µg/mL | 21.6 µM | 9.4 µg/mL | – | – | – |
| CC1OC(OC2C(O)C(COC(=O)C=Cc3ccc(O)c(O)c3)OC(OCCc3ccc(O)c(O)c3)C2O)C(OC2OC(CO)C(O)C(O)C2O)C(O)C1O (stereo not shown) [Isoteupolioside, isoteupolioside] | – | – | – | – | 340000 ± 10000 M⁻¹ | 20.3 µM | 9.14 µg/mL |
